24 molecules from ChEMBL document CHEMBL3045803, “Preparation and root growth-inhibitory activity of N-substituted 2-(2-chloroacetamido)-3-(furan-2-yl)propanamides” (2005) can be followed below.

This assay deals with Brassica rapa subsp. oleifera. Description: Inhibition of Brassica rapa subsp. oleifera root growth assessed as reduction of root length at 5 x 10^-5 M after 7 days by germination assay relative to control. It is filed as functional. The settings on record: 168 h.

The inhibition is the drop in the measured response relative to a control, in per cent. Turning to `O=C(CCl)NC(Cc1ccco1)C(=O)Nc1ccc(F)cc1` (centres undefined), the inhibition at 50 µM was determined as 37%.

With `CCc1cccc(NC(=O)C(Cc2ccco2)NC(=O)CCl)c1` (centres undefined), the inhibition at 50 µM worked out at 35%.

As for `O=C(CCl)NC(Cc1ccco1)C(=O)Nc1nc2ccccc2s1` (centres undefined), the inhibition at 50 µM came out at 58%.

Turning to `CCc1ccccc1NC(=O)C(Cc1ccco1)NC(=O)CCl` (centres undefined), the inhibition at 50 µM was found to be 20%.

For `O=C(CCl)NC(Cc1ccco1)C(=O)Nc1nccs1` (centres undefined), the inhibition at 50 µM was determined as 57%.

As for `Cc1cnc(NC(=O)C(Cc2ccco2)NC(=O)CCl)s1` (centres undefined), the inhibition at 50 µM stood at 20%.

For the molecule `CCc1cccc(C)c1NC(=O)C(Cc1ccco1)NC(=O)CCl` (centres undefined), the inhibition at 50 µM turned out to be 67%.

In the case of `O=C(CCl)NC(Cc1ccco1)C(=O)Nc1cccc(Br)c1` (centres undefined), the inhibition at 50 µM stood at 42%.

As for `Cc1csc(NC(=O)C(Cc2ccco2)NC(=O)CCl)n1` (centres undefined), the inhibition at 50 µM came to 56%.

Turning to `O=C(CCl)NC(Cc1ccco1)C(=O)Nc1ccccc1` (centres undefined), the inhibition at 50 µM worked out at 52%.

`Cc1nc(NC(=O)C(Cc2ccco2)NC(=O)CCl)sc1C` (centres undefined): the inhibition at 50 µM turned out to be 25%.

Consider `CCc1cccc(CC)c1NC(=O)C(Cc1ccco1)NC(=O)CCl` (centres undefined), for which the inhibition at 50 µM is 76%.

As to `O=C(CCl)NC(Cc1ccco1)C(=O)Nc1ncc([N+](=O)[O-])s1` (centres undefined), the inhibition at 50 µM was 37%.

On to `O=C(CCl)NC(Cc1ccco1)C(=O)Nc1nc2c(Cl)cccc2s1` (centres undefined), for which the inhibition at 50 µM was determined as 42%.

`O=C(CCl)NC(Cc1ccco1)C(=O)Nc1cccc(Cl)c1` (centres undefined): the inhibition at 50 µM was 30%.

Take `CCOc1ccc2nc(NC(=O)C(Cc3ccco3)NC(=O)CCl)sc2c1` (centres undefined): the inhibition at 50 µM turned out to be 34%.

In the case of `O=C(CCl)NC(Cc1ccco1)C(=O)Nc1ccc(Br)cc1` (centres undefined), the inhibition at 50 µM amounted to 29%.

For `O=C(O)COc1ccc(Cl)cc1Cl` [2,4-DICHLOROPHENOXYACETIC ACID], the inhibition at 50 µM came to 97%.

`O=C(CCl)NC(Cc1ccco1)C(=O)Nc1nc(-c2ccc(Cl)cc2)cs1` (centres undefined): the inhibition at 50 µM is 52%.

On to `Cc1cccc(C)c1NC(=O)C(Cc1ccco1)NC(=O)CCl` (centres undefined), for which the inhibition at 50 µM came out at 62%.

`O=C(CCl)NC(Cc1ccco1)C(=O)Nc1cccc(F)c1` (centres undefined): the inhibition at 50 µM was 33%.

Turning to `CCc1ccc(NC(=O)C(Cc2ccco2)NC(=O)CCl)cc1` (centres undefined), the inhibition at 50 µM amounted to 41%.

With `O=C(CCl)NC(Cc1ccco1)C(=O)Nc1ccc(Cl)cc1` (centres undefined), the inhibition at 50 µM was 19%.

Turning to `O=C(CCl)NC(Cc1ccco1)C(=O)Nc1ncc(Br)s1` (centres undefined), the inhibition at 50 µM stood at 69%.
